In publication PMC7481482, “Development of Anthraquinone Derivatives as Ectonucleoside Triphosphate Diphosphohydrolase (NTPDase) Inhibitors With Selectivity for NTPDase2 and NTPDase3” (Frontiers in Pharmacology, 2020):

Assays:
human NTPDase1 = target: T1, human NTPDase1 (Homo sapiens, UniProt P49961); test: Malachite green assay, human NTPDase1; type: biochemical; details: 2 μM compound; 50 µM ATP; COS-7 membrane preparation; read-out: % inhibition at 2 μM concentration, NTPDase1
T1 construct: expressed in transfected cells; host or cells: COS-7 cells (membrane preparation)
T1 sequence (P49961 1-510): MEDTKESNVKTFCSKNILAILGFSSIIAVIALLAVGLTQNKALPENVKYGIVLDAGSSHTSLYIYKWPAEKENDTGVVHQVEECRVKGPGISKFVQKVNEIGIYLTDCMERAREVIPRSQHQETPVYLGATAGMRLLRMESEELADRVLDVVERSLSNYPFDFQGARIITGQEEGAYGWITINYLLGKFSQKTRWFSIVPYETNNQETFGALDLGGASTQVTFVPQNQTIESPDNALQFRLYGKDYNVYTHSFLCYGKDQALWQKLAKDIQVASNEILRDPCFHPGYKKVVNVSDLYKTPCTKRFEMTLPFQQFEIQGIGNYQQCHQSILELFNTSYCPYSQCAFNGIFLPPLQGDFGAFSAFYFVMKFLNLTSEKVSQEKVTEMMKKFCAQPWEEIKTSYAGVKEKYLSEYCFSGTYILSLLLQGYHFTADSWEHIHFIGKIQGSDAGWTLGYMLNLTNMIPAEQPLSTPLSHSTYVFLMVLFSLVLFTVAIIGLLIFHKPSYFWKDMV
Procedure, shortened: (§1)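 COS-7 membranes expressing each NTPDase were preincubated with compound for 5 min at 37 °C, pH 7.4 HEPES buffer with 2 mM CaCl2/1 mM MgCl2. ATP was 50 µM for NTPDase1 and 100 µM for -2, -3, -8; reaction ran 15 min at 37 °C. Released phosphate read by malachite green at 600 nm; screen at 2 µM, IC50 over 0.03–30 µM in 2% DMSO.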

rat CD73 = system: rat CD73; set-up: method as in Baqi et al., 2010; details: 1 mM concentration; ref Baqi et al., 2010; cited from earlier work
human NTPDase2 [1] = target: T2, human NTPDase2 (Homo sapiens, UniProt Q9Y5L3); test: Malachite green assay, human NTPDase2; type: biochemical; details: for inhibition at 2 µM: 2 μM compound, read-out: % inhibition at 2 μM concentration, NTPDase2
T2 construct: expressed in transfected cells; host or cells: COS-7 cells (membrane preparation)
T2 sequence (Q9Y5L3 1-495): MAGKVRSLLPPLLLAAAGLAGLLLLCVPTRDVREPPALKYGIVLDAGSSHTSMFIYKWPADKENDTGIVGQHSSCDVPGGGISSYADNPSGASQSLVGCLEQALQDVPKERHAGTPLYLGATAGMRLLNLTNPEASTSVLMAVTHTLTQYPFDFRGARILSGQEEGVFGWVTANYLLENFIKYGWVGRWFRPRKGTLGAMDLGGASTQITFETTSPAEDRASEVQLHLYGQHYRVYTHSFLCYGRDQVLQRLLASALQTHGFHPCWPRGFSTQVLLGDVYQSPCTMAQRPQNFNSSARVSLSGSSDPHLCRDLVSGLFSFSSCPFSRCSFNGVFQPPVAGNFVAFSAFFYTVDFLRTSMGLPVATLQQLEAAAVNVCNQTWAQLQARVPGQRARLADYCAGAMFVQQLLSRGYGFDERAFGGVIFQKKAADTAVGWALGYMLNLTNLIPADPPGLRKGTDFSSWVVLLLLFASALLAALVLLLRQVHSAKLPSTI
Procedure, shortened: as §1

human NTPDase3 = target: T3, human NTPDase3 (Homo sapiens, UniProt O75355); test: Malachite green assay, human NTPDase3; type: biochemical; details: 2 μM compound; 100 µM ATP; COS-7 membrane preparation; read-out: % inhibition at 2 μM concentration, NTPDase3
T3 construct: expressed in transfected cells; host or cells: COS-7 cells (membrane preparation)
T3 sequence (O75355 1-529): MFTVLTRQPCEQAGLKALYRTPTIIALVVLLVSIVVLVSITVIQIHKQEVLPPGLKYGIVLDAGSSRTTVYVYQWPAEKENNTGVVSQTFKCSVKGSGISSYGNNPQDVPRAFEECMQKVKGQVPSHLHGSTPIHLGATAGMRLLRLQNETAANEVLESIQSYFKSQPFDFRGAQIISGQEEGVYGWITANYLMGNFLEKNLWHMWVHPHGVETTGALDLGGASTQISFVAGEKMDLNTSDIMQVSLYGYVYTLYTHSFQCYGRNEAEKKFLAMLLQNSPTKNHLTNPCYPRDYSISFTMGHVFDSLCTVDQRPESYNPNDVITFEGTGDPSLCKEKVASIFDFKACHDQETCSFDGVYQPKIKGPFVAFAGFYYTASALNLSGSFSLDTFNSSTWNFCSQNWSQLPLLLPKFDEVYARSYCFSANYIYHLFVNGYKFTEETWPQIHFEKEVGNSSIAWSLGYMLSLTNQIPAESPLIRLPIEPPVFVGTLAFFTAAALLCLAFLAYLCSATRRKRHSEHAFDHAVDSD
Procedure, shortened: as §1

human NTPDase8 [2] = target: T4, human NTPDase8 (Homo sapiens, UniProt Q5MY95); test: Malachite green assay, human NTPDase8; type: biochemical; details: 2 μM compound; 100 µM ATP; COS-7 membrane preparation; read-out: % inhibition at 2 μM concentration, NTPDase8
T4 construct: expressed in transfected cells; host or cells: COS-7 cells (membrane preparation)
T4 sequence (Q5MY95 1-495): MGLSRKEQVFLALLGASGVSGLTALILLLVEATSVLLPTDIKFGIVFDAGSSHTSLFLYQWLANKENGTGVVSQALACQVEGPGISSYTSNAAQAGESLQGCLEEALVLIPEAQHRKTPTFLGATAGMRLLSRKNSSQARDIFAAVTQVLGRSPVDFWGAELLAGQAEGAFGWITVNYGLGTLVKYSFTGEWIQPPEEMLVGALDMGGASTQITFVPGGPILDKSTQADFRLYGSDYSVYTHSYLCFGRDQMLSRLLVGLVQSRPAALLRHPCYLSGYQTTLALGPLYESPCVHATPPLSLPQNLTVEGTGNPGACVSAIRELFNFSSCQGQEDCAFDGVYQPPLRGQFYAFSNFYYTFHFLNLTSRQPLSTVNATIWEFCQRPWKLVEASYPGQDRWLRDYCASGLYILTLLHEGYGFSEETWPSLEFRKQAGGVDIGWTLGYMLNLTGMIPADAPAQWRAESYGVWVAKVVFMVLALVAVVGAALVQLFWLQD
Procedure, shortened: as §1

NTPDase1 = target: NTPDase1; set-up: method as in Lecka et al., 2013; details: ref Lecka et al., 2013; cited from earlier work
human NTPDase2 [3] = target: T2, human NTPDase2; details: ref Lévesque et al., 2007; cited from earlier work
human NTPDase8 [4] = target: T4, human NTPDase8; set-up: method as in Lévesque et al., 2007; details: ref Lévesque et al., 2007; cited from earlier work
rat NTPDase2 = details: cited from earlier work; for IC50: rat enzyme, ref Baqi et al., 2009b
rat NTPDase1 = details: cited from earlier work; for IC50: rat enzyme, ref Baqi et al., 2009b
rat NTPDase3 = details: cited from earlier work; for IC50: rat enzyme, ref Baqi et al., 2009b
[5] = 100 µM ATP, COS-7 membrane preparation

| Compound | inhibition at 2 µM (human NTPDase1) [%] | inhibition at 2 µM (human NTPDase3) [%] | inhibition at 2 µM (human NTPDase8 [2]) [%] | inhibition at 2 µM (human NTPDase2 [1]; [5]) [%] | melting point [°C] | other results |
| --- | --- | --- | --- | --- | --- | --- |
| Nc1c(S(=O)(=O)O)cc(Nc2cc3ccccc3c3ccccc23)c2c1C(=O)c1ccccc1C2=O [Compound 20, 1-amino-4-(9-phenanthrylamino)-9,10-dioxo-9,10-dihydroanthracene-2-sulfonate] | -7 | -5 | 6 | – | – | % inhibition of CD73 at 1 mM concentration (rat CD73): 58%; IC50 (human NTPDase2 [1]; 100 µM ATP, COS-7 membrane preparation, read-out: IC50 ± SEM, NTPDase2): 0.539 ± 0.29 µM; inhibition type, NTPDase2 (human NTPDase2 [1]; Hanes-Woolf plot, 25-200 µM ATP, inhibitor 0, 0.25, 0.5, 1 µM): non-competitive |
| CCCCSc1nc2c(N)ncnc2n1[C@@H]1O[C@H](COP(=O)(O)OP(=O)(O)OP(=O)(O)O)[C@@H](O)[C@H]1O [8-BuS-ATP] | – | – | – | – | – | Ki (NTPDase1): 0.8 µM |
| CCN(CC)c1ncnc2c1ncn2[C@@H]1O[C@H](COP(=O)(O)OP(=O)(O)C(Br)(Br)P(=O)(O)O)[C@@H](O)[C@H]1O [ARL67156] | – | – | – | – | – | inhibition of human NTPDase2 (in words) (human NTPDase2 [3]): does not inhibit; inhibition of human NTPDase8 (in words) (human NTPDase8 [4]): does not inhibit |
| Nc1c(S(=O)(=O)O)cc(Nc2ccc3ccccc3c2)c2c1C(=O)c1ccccc1C2=O [Compound 18] | -8 | -9 | 3 | 34 | – | IC50 (rat NTPDase2): 19.1 µM; IC50 (rat NTPDase1): 0.328 µM; IC50 (rat NTPDase3): 2.22 µM |
| [TiW11CoO40]^8- [Compound 9, reference compound] | – | – | – | – | – | inhibition of rat NTPDase2 (concentration range in words) (rat NTPDase2; ref Müller et al., 2006): submicromolar concentration range; inhibition of rat NTPDase1 (concentration range in words) (rat NTPDase1; ref Müller et al., 2006): submicromolar concentration range; inhibition of rat NTPDase3 (concentration range in words) (rat NTPDase3; ref Müller et al., 2006): submicromolar concentration range |
| Cc1cccc(Nc2cc(S(=O)(=O)O)c(N)c3c2C(=O)c2ccccc2C3=O)c1 [Compound 6, reference compound] | -4 | 1 | -21 | 22 | – | IC50 (rat NTPDase2): 12.8 µM; IC50 (rat NTPDase1): 51.5 µM; IC50 (rat NTPDase3): 19.1 µM |
| Nc1c(S(=O)(=O)[O-])cc(Nc2ccccc2CO)c2c1C(=O)c1ccccc1C2=O.[Na+] [Compound 27, Sodium 1-amino-4-(2-(hydroxymethyl)phenylamino)-9,10-dioxo-9,10-dihydroanthracene-2-sulfonate] | -1 | 11 | 4 | 12 | > 300 | – |
| O=C1c2ccccc2C(=O)c2c(Nc3cccc(F)c3)cc(S(=O)(=O)O)cc21 [Compound 57, 4-(3-Fluorophenylamino)-9,10-dioxo-9,10-dihydroanthracene-2-sulfonic acid] | 14 | 9 | -1 | -6 | > 300 | – |
| Nc1c(S(=O)(=O)[O-])cc(Nc2cccc(F)c2C(=O)O)c2c1C(=O)c1ccccc1C2=O.[Na+] [Compound 35, Sodium 1-amino-4-(2-carboxy-3-fluorophenylamino)-9,10-dioxo-9,10-dihydroanthracene-2-sulfonate] | -21 | 32 | -10 | -3 | > 300 | – |
